One data set relates to HCMV strain AD169. Put plainly: Human Cytomegalovirus Assay (HCMV DNA hybridization). The format is cell-based. The settings on record: HCMV strain AD169 on MRC5 cell monolayers, 5 days incubation, antiviral effect from HCMV DNA by quantitative hybridization. How it is done:
HCMV strain AD169 was grown on monolayers of human embryonic lung cells (MRC5 cells) in 96 well plates. After infection of the cells at a ratio of approximately 0.01 infectious virus particles per cell, the compounds to be tested were added to selected wells at six different concentrations, each in triplicate. The same concentrations of compound were also applied to wells containing monolayers of uninfected cells in order to assess compound cytotoxicity. The plates were incubated for 5 days, and the minimum cytotoxic dose was estimated from microscopic examination. The IC50 for antiviral effect was estimated from measurements of HCMV DNA in each well by blotting and quantitative specific DNA hybridization, similar to the method of Gadler (Antimicrob. Agents Chemother. 1983, 24, 370-374).

On to “2-Bromo-5,6-dichloro/4-fluoro-1-beta-D-ribopyranosyl-1H-benzimidazole [Example 24]”, for which the midpoint of inhibition in the data set on HCMV strain AD169, the IC50, lay at 900 nM.
As to `O[C@@H]1CCCC[C@H]1n1c(Br)nc2cc(Cl)c(Cl)cc21` (racemic) [Example 45, (±)-trans-2-(2-Bromo-5,6-dichloro-1H-benzimidazol-1-yl)cyclohexanol], the melting point is 201 to 202 °C.
In turn, `O[C@@H]1CCCC[C@H]1n1c(NC2CC2)nc2cc(Cl)c(Cl)cc21` (racemic) [Example 46, (±)-trans-2-[5,6-Dichloro-2-(cyclopropylamino)-1H-benzimidazol-1-yl]cyclohexanol] gave a melting point of 149 to 151 °C.
`CC(=O)O[C@@H]1[C@H](OC(C)=O)[C@H](OC(C)=O)CO[C@H]1n1c(Br)nc2cc(Cl)c(Cl)cc21` [Example 1, 2-Bromo-5,6-dichloro-1-(2,3,4-tri-O-acetyl-beta-D-ribopyranosyl)-1H-benzimidazole] came in with a melting point of 100 to 110 °C. In addition, the IC50 in the data set on HCMV strain AD169 (Human betaherpesvirus 5, 120 h) turned out to be 1000 nM.
Take `O[C@@H]1[C@H](O)[C@H](O)CO[C@H]1n1c(Br)nc2cc(Cl)c(Cl)cc21` [Example 2, 2-Bromo-5,6-dichloro-1-beta-D-ribopyranosyl-1H-benzimidazole]: the melting point was 175 °C (dec.). Further, the midpoint of inhibition in the data set with HCMV strain AD169 (Human betaherpesvirus 5, 120 h), the IC50, lay at 700 nM.
For `CC(C)Nc1nc2cc(Cl)c(Cl)cc2n1[C@@H]1OC[C@@H](O)[C@@H](O)[C@H]1O` [Example 3, 5,6-Dichloro-N-1(1-methylethyl)-1-beta-D-ribopyranosyl-1H-benzimidazole-2-amine], in the data set with HCMV strain AD169, the IC50 was found to be 22000 nM.
In turn, `CC(=O)O[C@@H]1[C@H](OC(C)=O)[C@@H](n2c(Br)nc3cc(Cl)c(Cl)cc32)OC[C@@H]1OC(C)=O` [Example 4, 2-Bromo-5,6-dichloro-1-(2,3,4-tri-O-acetyl-beta-L-ribopyranosyl)-1H-benzimidazole] displayed a melting point of 110 °C.
On to `Cc1cc2nc(Br)n([C@@H]3OC[C@@H](O)[C@@H](O)[C@H]3O)c2cc1Cl` [Example 13, 2-Bromo-6-chloro-5-methyl-1-beta-D-ribopyranosyl-1H-benzimidazole], for which the melting point is 170 to 175 °C (dec.). The compound further gave an IC50 with HCMV strain AD169 (Human betaherpesvirus 5, 120 h) of 6000 nM.
`OC[C@@H]1OC[C@H](n2c(NC3CC3)nc3cc(Cl)c(Cl)cc32)C[C@H]1O` [Example 39, (3R,5R,6S)-5,6-Dichloro-2-(cyclopropylamino)-1-(tetrahydro-5-hydroxy-6-(hydroxymethyl)2H-pyran-3-yl)-1H-benzimidazole] registered a melting point of 98 to 99 °C.
The compound `OC[C@H]1OC[C@@H](n2c(Br)nc3cc(Cl)c(Cl)cc32)[C@H](O)[C@@H]1O` [Example 40, (3R,4S,5S,6R)-2-Bromo-5,6-dichloro-1-(tetrahydro-4,5-dihydroxy-6-(Hydroxymethyl)-2H-pyran-3-yl)-1H-benzimidazole] yielded a melting point of 207 to 209 °C.
Same read-out and setting: in the case of `OC[C@H]1OC[C@@H](n2c(NC3CC3)nc3cc(Cl)c(Cl)cc32)[C@H](O)[C@@H]1O` [Example 41, (3R,4S ,5S ,6R)-5,6-Dichloro-2-(cyclopropylamino)-1-(tetrahydro-4,5-dihydroxy-6-(hydroxymethyl)-2H-pyran-3-yl)-1H-benzimidazole] it was 244 °C (dec.).
Still for that read-out and setting: the figure for `OC[C@@H]1OC[C@H](n2c(Br)nc3cc(Cl)c(Cl)cc32)[C@@H](O)[C@H]1O` [Example 42, (3S,4R,5R,6S)-2-Bromo-5,6-dichloro-1-(tetrahydro-4,5-dihydroxy-6-(hydroxymethyl)-2H-pyran-3-yl)-1H-benzimidazole] is 207 to 208 °C.
On the same count and under the same terms, the figure for `OC[C@@H]1OC[C@H](n2c(NC3CC3)nc3cc(Cl)c(Cl)cc32)[C@@H](O)[C@H]1O` [Example 43, (3S,4R,5R,6S)-5,6-Dichloro-2-(cyclopropylamino)-1-(tetrahydro-4,5-dihydroxy-6-(hydroxymethyl)-2H-pyran-3-yl)-1H-benzimidazole] is 164 °C; for `O[C@H]1[C@H](O)[C@@H](n2c(Br)nc3cc(Cl)c(Cl)cc32)OC[C@@H]1O` [Example 57, 2-Bromo-5,6-dichloro-1-beta-L-xylopyranosyl-1H-benzimidazole] it is 164 to 165 °C.

One may read the IC50 as the point on the concentration scale where inhibition reaches its midpoint. As a reminder, the melting point is the temperature of the solid-liquid transition.

The values are drawn from patent US6455507B1, “Benzimidazole derivatives” (SmithKline Beecham Corporation, priority 1997, dated 2002).
